How the values were obtained:
Format in all cases: in vivo, rat
[1] = Example 44 single oral dose study: bodyweight
Description: (§1) Sample 1 to 3 were each administered as a single oral dose to male Wistar rats. Two additional control groups received vehicle (distilled water or DMSO). Orally administered fenfluramine (7.5 mg/kg) was included as a reference standard.
(§2) Fifty-five male Wistar rats were used for the study.
(§3) Bodyweights, food consumption (food hopper weight) and water consumption (bottle weight) were recorded daily at the same time each day from the day of arrival until the termination of the study.
(§4) On Day 1, the rats received a single oral (gavage) dose according to the following table:
(§5) Groups 1–8 were dosed using a constant dose volume of 10 ml/kg and groups 9–12 were dosed using a dose volume of 1 ml/kg.
(§6) The post-dose food and water consumption measurements and bodyweights at each time-point for the P57-treated animals were compared with those for the relevant, similarly-treated vehicle control group using analysis of variance followed by Williams' test for comparisons with controls.
(§7) The data for the fenfluramine-treated animals was compared with that for the vehicle-treated control group using Student's t test.

male Wistar rats [2] = assay: Example 44 single oral dose study: liver histopathology; conditions: for Liver (ORO stain): Hepatocyte fat - centrilobular(Total) / Liver (ORO stain): Hepatocyte fat - centrilobular, Minimal / Liver (ORO stain): No abnormalities detected / Liver: Hepatocyte necrosis - focal (Total) / Liver: Hepatocyte necrosis - focal, Minimal / Liver: No abnormalities detected (incidence) / Liver: Parenchymal inflammatory cell foci (Total) / Liver: Parenchymal inflammatory cell foci, Minimal / Liver: Portal leucocytes (Total) / Liver: Portal leucocytes, Minimal / Liver: Portal lymphoid infiltration (Total) / Liver: Portal lymphoid infiltration, Minimal: 5 examined
From the text: Following the measurements of Day 8, the animals were killed by carbon dioxide asphyxiation, and the livers excised and placed in 10% buffered formalin, prior to histology.
Paraffin wax sections of each liver were taken at 4–5 μm and stained with haematoxylin and eosin. Additional sections were cut on a cryostat at 12 μm and stained for fat with Oil Red O (ORO).
Histological examination was restricted to the liver.

rats = assay: Bioassay of chromatographic fractions for appetite suppressant activity; conditions: bioassay of fractions from silica gel chromatography
From the text: The extract may be prepared from plant material such as the stems and roots of said plants of the genus Trichocaulon or of the genus Hoodia. The genus Trichocaulon and the genus Hoodia include succulent plants growing in arid regions such as are found in Southern Africa. In one application of the invention, the active appetite suppressant extract is obtained from the species Trichocaulon piliferum. The species Trichocaulon officinale may also be used to provide an active appetite suppressant extract. In another application of the invention, the active appetite suppressant extract may be obtained from the species Hoodia currorii, Hoodia gordonii or Hoodia lugardii.
The partially purified active extract may be dissolved in methanol, and may be further fractionated by column chromatography, employing silica gel as an adsorption medium and a chloroform/30% methanol mixture as an eluent. A plurality of different fractions may be obtained, and each may be evaluated, by suitable bioassaying procedures, to determine the appetite suppressant activity thereof.
A fraction having appetite suppressant activity may preferably be further fractionated such as by column chromatography using silica gel as an adsorption medium and a 9:1 chloroform:methanol solvent, and the resultant sub-fractions bioassayed for their appetite suppressant activity. […]

male Wistar rats [3] = assay: Example 44 single oral dose study: food consumption
Description: as §1, §2, §3, §4, §5
(§8) Food and water consumption were also measured at […] after dosing on Day 1.
as §6, §7

male Wistar rats [4] = assay: Example 44 single oral dose study: water consumption
Description: as §1, §2, §3, §4, §5, §8, §6, §7

[5] = 2.5 mg/kg single oral dose on Day 1
[6] = 5.0 mg/kg single oral dose on Day 1
[7] = 2.5 and 5.0 mg/kg single oral dose

## 3-0-[-β-D-thevetopyranosyl-(1→4)-β-D-cymaropyranosyl-(1→4)-β-D-cymaropyranosyl]-12β-0-tigloyloxy-14-hydroxy-14β-pregn-5-en-20-one [Compound (1)]
[1]; [5]
  Group mean bodyweight (g ± sd) on Day: 2: 191.2 ± 11.15 g
  Group mean bodyweight (g ± sd) on Day: 3: 200.0 ± 11.25 g
  Group mean bodyweight (g ± sd) on Day: 4: 209.6 ± 12.28 g
  Group mean bodyweight (g ± sd) on Day: 5: 219.6 ± 12.95 g
  Group mean bodyweight (g ± sd) on Day: 6: 229.4 ± 13.69 g
  Group mean bodyweight (g ± sd) on Day: 7: 238.4 ± 14.50 g
  Group mean bodyweight (g ± sd) on Day: 8: 247.0 ± 14.35 g
[1]; [6]
  Group mean bodyweight (g ± sd) on Day: 2: 192.0 ± 9.93 g
  Group mean bodyweight (g ± sd) on Day: 3: 192.4 ± 9.84 g
  Group mean bodyweight (g ± sd) on Day: 4: 201.0 ± 11.27 g
  Group mean bodyweight (g ± sd) on Day: 5: 209.4 ± 12.70 g
  Group mean bodyweight (g ± sd) on Day: 6: 219.8 ± 11.86 g
  Group mean bodyweight (g ± sd) on Day: 7: 228.2 ± 12.28 g
  Group mean bodyweight (g ± sd) on Day: 8: 236.0 ± 13.95 g
[1]; [7]
  effects on bodyweights: No statistically significant effects on bodyweights
Male Wistar rats [2]; Group 9, 2.5 mg/kg
  Liver (ORO stain): Hepatocyte fat - centrilobular(Total): 2
  Liver (ORO stain): Hepatocyte fat - centrilobular, Minimal: 2
  Liver (ORO stain): No abnormalities detected: 3
  Liver: Hepatocyte necrosis - focal (Total): 1
  Liver: Hepatocyte necrosis - focal, Minimal: 1
  Liver: No abnormalities detected (incidence): 0
  Liver: Parenchymal inflammatory cell foci (Total): 0
  Liver: Parenchymal inflammatory cell foci, Minimal: 0
  Liver: Portal leucocytes (Total): 1
  Liver: Portal leucocytes, Minimal: 1
  Liver: Portal lymphoid infiltration (Total): 5
  Liver: Portal lymphoid infiltration, Minimal: 5
Male Wistar rats [2]; Group 10, 5 mg/kg
  Liver (ORO stain): Hepatocyte fat - centrilobular(Total): 2
  Liver (ORO stain): Hepatocyte fat - centrilobular, Minimal: 2
  Liver (ORO stain): No abnormalities detected: 3
  Liver: Hepatocyte necrosis - focal (Total): 0
  Liver: Hepatocyte necrosis - focal, Minimal: 0
  Liver: No abnormalities detected (incidence): 1
  Liver: Parenchymal inflammatory cell foci (Total): 0
  Liver: Parenchymal inflammatory cell foci, Minimal: 0
  Liver: Portal leucocytes (Total): 0
  Liver: Portal leucocytes, Minimal: 0
  Liver: Portal lymphoid infiltration (Total): 4
  Liver: Portal lymphoid infiltration, Minimal: 4
Male Wistar rats [2]; all doses tested, single oral dose, livers taken Day 8
  histological examination of the liver: No treatment-related changes were detected
rats
  appetite suppressant activity: marked appetite suppressant activity
Male Wistar rats [3]; 2.5 mg/kg single oral dose
  Group mean food consumption (g ± sd) between Days: 1–2: 26.8 ± 3.33 g
  Group mean food consumption (g ± sd) between Days: 2–3: 29.1 ± 3.43 g
  Group mean food consumption (g ± sd) between Days: 3–4: 31.7 ± 3.08 g
  Group mean food consumption (g ± sd) between Days: 4–5: 34.0 ± 2.95 g
  Group mean food consumption (g ± sd) between Days: 5–6: 34.4 ± 4.32 g
  Group mean food consumption (g ± sd) between Days: 6–7: 33.1 ± 4.11 g
  Group mean food consumption (g ± sd) between Days: 7–8: 34.8 ± 3.71 g
Male Wistar rats [3]; 5.0 mg/kg single oral dose
  Group mean food consumption (g ± sd) between Days: 1–2: 22.1 ± 2.19 g
  Group mean food consumption (g ± sd) between Days: 2–3: 21.0 ± 3.07 g
  Group mean food consumption (g ± sd) between Days: 3–4: 27.6 ± 5.26 g
  Group mean food consumption (g ± sd) between Days: 4–5: 30.5 ± 3.33 g
  Group mean food consumption (g ± sd) between Days: 5–6: 33.0 ± 3.16 g
  Group mean food consumption (g ± sd) between Days: 6–7: 32.4 ± 3.25 g
  Group mean food consumption (g ± sd) between Days: 7–8: 33.0 ± 3.84 g
  duration of reduction in food consumption: 48 hours post-dose
  food consumption versus vehicle-treated animals: statistically significant reductions in food consumption
Male Wistar rats [4]; 2.5 mg/kg single oral dose
  Group mean water consumption (g ± sd) between Days: 1–2: 32.2 ± 4.01 g
  Group mean water consumption (g ± sd) between Days: 2–3: 36.1 ± 12.42 g
  Group mean water consumption (g ± sd) between Days: 3–4: 38.3 ± 11.71 g
  Group mean water consumption (g ± sd) between Days: 4–5: 41.5 ± 16.60 g
  Group mean water consumption (g ± sd) between Days: 5–6: 34.7 ± 7.57 g
  Group mean water consumption (g ± sd) between Days: 6–7: 33.0 ± 4.20 g
  Group mean water consumption (g ± sd) between Days: 7–8: 35.3 ± 8.70 g
Male Wistar rats [4]; 5.0 mg/kg single oral dose
  Group mean water consumption (g ± sd) between Days: 1–2: 33.9 ± 2.40 g
  Group mean water consumption (g ± sd) between Days: 2–3: 31.5 ± 8.12 g
  Group mean water consumption (g ± sd) between Days: 3–4: 35.1 ± 3.82 g
  Group mean water consumption (g ± sd) between Days: 4–5: 37.7 ± 5.99 g
  Group mean water consumption (g ± sd) between Days: 5–6: 39.5 ± 7.78 g
  Group mean water consumption (g ± sd) between Days: 6–7: 37.4 ± 11.07 g
  Group mean water consumption (g ± sd) between Days: 7–8: 37.8 ± 6.42 g
Male Wistar rats [4]; [7]
  effects on water consumption: No statistically significant effects on water consumption

From patent publication US7166611B2, “Pharmaceutical compositions having appetite suppressant activity” (priority 1997, dated 2007)
